Measurements reported in the supplement of paper PMC11424490.

How the values were obtained:
SW837 = assay: combination cScore with adagrasib (Bliss gap around IC50) (%PoC); higher = stronger additive effect
Method in brief: (§1)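 NCI-H2122, NCI-H358 and SW837 cells were plated in 384-well plates at 500 or 800 cells per well, treated with concentration matrices after 24 h, and grown for 72 h (SW837 for 144 h). Luminescence from CellTiter-Glo was expressed as percent of control relative to vehicle wells and fitted with four-parameter curves. The score is the mean Bliss-independence gap, expected minus measured viability, across a field around both monotherapy IC50 values, or across the top concentrations where no IC50 was reached.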

NCI-H2122 = assay: as above
Method in brief: as §1

| SMILES | combination cScore with adagrasib (SW837) | combination cScore with adagrasib (NCI-H2122) |
| --- | --- | --- |
| CC[C@H](C)C(=O)O[C@H]1C[C@@H](C)C=C2C=C[C@H](C)[C@H](CC[C@@H]3C[C@@H](O)CC(=O)O3)[C@H]21 [Lovastatin] + C=C(F)C(=O)N1CCN(c2nc(OC[C@@H]3CCCN3C)nc3c2CCN(c2cccc4cccc(Cl)c24)C3)C[C@@H]1CC#N [adagrasib] | 1.03 | -4.64 |
| COc1cc(Nc2ncc3c(n2)-c2ccc(Cl)cc2C(c2c(F)cccc2OC)=NC3)ccc1C(=O)O [MLN8237] + C=C(F)C(=O)N1CCN(c2nc(OC[C@@H]3CCCN3C)nc3c2CCN(c2cccc4cccc(Cl)c24)C3)C[C@@H]1CC#N [adagrasib] | 4.72 | -0.97 |
| Cc1ccc(NC(=O)c2ccc(CN3CCN(C)CC3)cc2)cc1Nc1nc(-c2cccnc2)cs1 [Masitinib] + C=C(F)C(=O)N1CCN(c2nc(OC[C@@H]3CCCN3C)nc3c2CCN(c2cccc4cccc(Cl)c24)C3)C[C@@H]1CC#N [adagrasib] | -2.55 | 5.2 |
| C[C@H](Cc1ccc(O)c(O)c1)[C@@H](C)Cc1ccc(O)c(O)c1 [Masoprocol] + C=C(F)C(=O)N1CCN(c2nc(OC[C@@H]3CCCN3C)nc3c2CCN(c2cccc4cccc(Cl)c24)C3)C[C@@H]1CC#N [adagrasib] | -3.46 | 1.34 |
| N[C@@H](Cc1ccc(N(CCCl)CCCl)cc1)C(=O)O [Melphalan] + C=C(F)C(=O)N1CCN(c2nc(OC[C@@H]3CCCN3C)nc3c2CCN(c2cccc4cccc(Cl)c24)C3)C[C@@H]1CC#N [adagrasib] | -0.68 | 3.55 |
| CN(C)C(=N)NC(=N)N [Metformin] + C=C(F)C(=O)N1CCN(c2nc(OC[C@@H]3CCCN3C)nc3c2CCN(c2cccc4cccc(Cl)c24)C3)C[C@@H]1CC#N [adagrasib] | 1.92 | -8.41 |
| CN(Cc1cnc2nc(N)nc(N)c2n1)c1ccc(C(=O)N[C@@H](CCC(=O)O)C(=O)O)cc1 [Methotrexate] + C=C(F)C(=O)N1CCN(c2nc(OC[C@@H]3CCCN3C)nc3c2CCN(c2cccc4cccc(Cl)c24)C3)C[C@@H]1CC#N [adagrasib] | -8.99 | -2.65 |
| CO[C@@]12[C@H](COC(N)=O)C3=C(C(=O)C(C)=C(N)C3=O)N1C[C@@H]1N[C@@H]12 [Mitomycin C] + C=C(F)C(=O)N1CCN(c2nc(OC[C@@H]3CCCN3C)nc3c2CCN(c2cccc4cccc(Cl)c24)C3)C[C@@H]1CC#N [adagrasib] | -3.24 | 0.77 |
| CCc1cccc(CC)c1NC(=O)c1nn(C)c2c1CCc1cnc(Nc3ccc(C(=O)NC4CCN(C)CC4)cc3OC(F)(F)F)nc1-2 [NMS-P715] + C=C(F)C(=O)N1CCN(c2nc(OC[C@@H]3CCCN3C)nc3c2CCN(c2cccc4cccc(Cl)c24)C3)C[C@@H]1CC#N [adagrasib] | 2.41 | -2.37 |
| O=c1cc(N2CCOCC2)oc2c(-c3cccc4c3sc3ccccc34)cccc12 [NU-7441] + C=C(F)C(=O)N1CCN(c2nc(OC[C@@H]3CCCN3C)nc3c2CCN(c2cccc4cccc(Cl)c24)C3)C[C@@H]1CC#N [adagrasib] | 11.6 | 6.81 |
| Cn1c(=O)n(-c2ccc(C(C)(C)C#N)cc2)c2c3cc(-c4cnc5ccccc5c4)ccc3ncc21 [NVP-BEZ235] + C=C(F)C(=O)N1CCN(c2nc(OC[C@@H]3CCCN3C)nc3c2CCN(c2cccc4cccc(Cl)c24)C3)C[C@@H]1CC#N [adagrasib] | 6.19 | 3.55 |
| Cc1cn(-c2cc(NC(=O)c3ccc(C)c(Nc4nccc(-c5cccnc5)n4)c3)cc(C(F)(F)F)c2)cn1 [Nilotinib] + C=C(F)C(=O)N1CCN(c2nc(OC[C@@H]3CCCN3C)nc3c2CCN(c2cccc4cccc(Cl)c24)C3)C[C@@H]1CC#N [adagrasib] | 9.6 | 10.6 |
| COC(=O)c1ccc2c(c1)NC(=O)/C2=C(\Nc1ccc(N(C)C(=O)CN2CCN(C)CC2)cc1)c1ccccc1 [Nintedanib] + C=C(F)C(=O)N1CCN(c2nc(OC[C@@H]3CCCN3C)nc3c2CCN(c2cccc4cccc(Cl)c24)C3)C[C@@H]1CC#N [adagrasib] | 4.49 | 7.6 |
| CN1CCN(c2ccc(-c3cccc(CN4CCOCC4)c3)cc2NC(=O)c2c[nH]c(=O)cc2C(F)(F)F)CC1 [OICR-9429] + C=C(F)C(=O)N1CCN(c2nc(OC[C@@H]3CCCN3C)nc3c2CCN(c2cccc4cccc(Cl)c24)C3)C[C@@H]1CC#N [adagrasib] | 8.92 | -2.61 |
| N[C@H]1CC[C@H](N[C@@H]2C[C@H]2c2ccccc2)CC1 [ORY-1001] + C=C(F)C(=O)N1CCN(c2nc(OC[C@@H]3CCCN3C)nc3c2CCN(c2cccc4cccc(Cl)c24)C3)C[C@@H]1CC#N [adagrasib] | 2.12 | -4.53 |
| O=C(O)C(=O)O.[NH-][C@@H]1CCCC[C@H]1[NH-].[Pt+2] [Oxaliplatin] + C=C(F)C(=O)N1CCN(c2nc(OC[C@@H]3CCCN3C)nc3c2CCN(c2cccc4cccc(Cl)c24)C3)C[C@@H]1CC#N [adagrasib] | -1.13 | 5.21 |
| CC(=O)O[C@H]1C(=O)[C@@]2(C)[C@H]([C@H](OC(=O)c3ccccc3)[C@]3(O)C[C@H](OC(=O)[C@H](O)[C@@H](NC(=O)c4ccccc4)c4ccccc4)C(C)=C1C3(C)C)[C@]1(OC(C)=O)CO[C@@H]1C[C@@H]2O [Paclitaxel] + C=C(F)C(=O)N1CCN(c2nc(OC[C@@H]3CCCN3C)nc3c2CCN(c2cccc4cccc(Cl)c24)C3)C[C@@H]1CC#N [adagrasib] | 2.18 | 0.85 |
| Cc1[nH]c2ccccc2c1CCNCc1ccc(/C=C/C(=O)NO)cc1 [Panobinostat] + C=C(F)C(=O)N1CCN(c2nc(OC[C@@H]3CCCN3C)nc3c2CCN(c2cccc4cccc(Cl)c24)C3)C[C@@H]1CC#N [adagrasib] | 5.72 | 2.38 |
| Cc1ccc(Nc2nccc(N(C)c3ccc4c(C)n(C)nc4c3)n2)cc1S(N)(=O)=O [Pazopanib] + C=C(F)C(=O)N1CCN(c2nc(OC[C@@H]3CCCN3C)nc3c2CCN(c2cccc4cccc(Cl)c24)C3)C[C@@H]1CC#N [adagrasib] | -7.8 | -6.25 |
| Nc1nc2[nH]cc(CCc3ccc(C(=O)N[C@@H](CCC(=O)O)C(=O)O)cc3)c2c(=O)[nH]1 [Pemetrexed] + C=C(F)C(=O)N1CCN(c2nc(OC[C@@H]3CCCN3C)nc3c2CCN(c2cccc4cccc(Cl)c24)C3)C[C@@H]1CC#N [adagrasib] | 5.08 | 2.77 |
| CC(C)(C)c1cc(NC(=O)Nc2ccc(-c3cn4c(n3)sc3cc(OCCN5CCOCC5)ccc34)cc2)no1 [Quizartinib] + C=C(F)C(=O)N1CCN(c2nc(OC[C@@H]3CCCN3C)nc3c2CCN(c2cccc4cccc(Cl)c24)C3)C[C@@H]1CC#N [adagrasib] | 0.28 | -3.38 |
| Cc1ncc(NC(=O)c2cccc(C(F)(F)F)c2)cc1-c1cnc(OC2CCOCC2)c(N2CCOCC2)c1 [RAF-709] + C=C(F)C(=O)N1CCN(c2nc(OC[C@@H]3CCCN3C)nc3c2CCN(c2cccc4cccc(Cl)c24)C3)C[C@@H]1CC#N [adagrasib] | 4.87 | 7.22 |
| CO[C@H]1C[C@@H]2CC[C@@H](C)[C@@](O)(O2)C(=O)C(=O)N2CCCC[C@H]2C(=O)O[C@H]([C@H](C)C[C@@H]2CC[C@@H](O)[C@H](OC)C2)CC(=O)[C@H](C)/C=C(\C)[C@@H](O)[C@@H](OC)C(=O)[C@H](C)C[C@H](C)/C=C/C=C/C=C/1C [Rapamycin] + C=C(F)C(=O)N1CCN(c2nc(OC[C@@H]3CCCN3C)nc3c2CCN(c2cccc4cccc(Cl)c24)C3)C[C@@H]1CC#N [adagrasib] | 6.52 | 4.11 |
| CNC(=O)c1cc(Oc2ccc(NC(=O)Nc3ccc(Cl)c(C(F)(F)F)c3)c(F)c2)ccn1 [Regorafenib] + C=C(F)C(=O)N1CCN(c2nc(OC[C@@H]3CCCN3C)nc3c2CCN(c2cccc4cccc(Cl)c24)C3)C[C@@H]1CC#N [adagrasib] | -1.71 | -3.41 |
| COc1cc(OC)c(/C=C/S(=O)(=O)Cc2ccc(OC)c(NCC(=O)O)c2)c(OC)c1 [Rigosertib] + C=C(F)C(=O)N1CCN(c2nc(OC[C@@H]3CCCN3C)nc3c2CCN(c2cccc4cccc(Cl)c24)C3)C[C@@H]1CC#N [adagrasib] | 7.78 | 1.67 |
| C/C=C1\NC(=O)[C@H]2CSSCC/C=C/[C@H](CC(=O)N[C@H](C(C)C)C(=O)N2)OC(=O)[C@H](C(C)C)NC1=O [Romidepsin] + C=C(F)C(=O)N1CCN(c2nc(OC[C@@H]3CCCN3C)nc3c2CCN(c2cccc4cccc(Cl)c24)C3)C[C@@H]1CC#N [adagrasib] | 6.42 | -1.65 |
| N#CC[C@H](C1CCCC1)n1cc(-c2ncnc3[nH]ccc23)cn1 [Ruxolitinib] + C=C(F)C(=O)N1CCN(c2nc(OC[C@@H]3CCCN3C)nc3c2CCN(c2cccc4cccc(Cl)c24)C3)C[C@@H]1CC#N [adagrasib] | 0.75 | -2.1 |
| CC(C)(C)c1ccc(S(=O)(=O)NCc2ccc(C(=O)Nc3cccnc3)cc2)cc1 [STF-31] + C=C(F)C(=O)N1CCN(c2nc(OC[C@@H]3CCCN3C)nc3c2CCN(c2cccc4cccc(Cl)c24)C3)C[C@@H]1CC#N [adagrasib] | 10.7 | -2.08 |
